US4743609A, “Indole derivatives having gastric and antisecretory and cytoprotective properties, and pharmaceutical preparations containing same” (Banyu Pharmaceutical Co., Ltd., priority 1985, dated 1988)
Like-named read-outs stand apart in the source and are kept apart here.

Tests used:
H^+,K^+ -ATPase = molecular target: T1, H^+,K^+ -ATPase (Oryctolagus cuniculus, UniProt P27112); assay: Inhibitory effects on the enzymatic activity of H^+,K^+ -ATPase; type: biochemical, rabbit
T1 construct: The rabbit gastric glands were homogenized and the microsomal fractions were prepared; from tissue; host or cells: rabbit gastric glands, light membrane fraction between 30% and 40% sucrose
Protocol: The rabbit gastric glands were homogenized and the microsomal fractions were prepared by differential centrifugation of the resultant homogenate. The microsomal fractions were layered on a linear continuous sucrose gradient ranging from 20 to 55% (W/V) sucrose and centrifuged to obtain the light membrane fractions sedimenting between 30% sucrose and 40% sucrose. The light membrane fractions containing the H^+,K^+ -ATPase so obtained were used to estimate the inhibitory effects of the new compound of this invention or omeprazole on the enzymatic activity of H^+,K^+ -ATPase. Test compounds were pre-incubated with the reaction mixture containing the enzyme (20-50 μg as protein) for 30 minutes at 37° C. After this, the enzymatic activity of the reaction mixture was determined by incubating for 20 minutes at 37° C. with the following reactant mixture comprising 10 mM MgCl2, 10 mM ATP disodium salt and 400 mM Tris-HCl (pH 7.3) with or without 50 mM KCl.

gastric mucosa = assay: Preventing the gastric ulcer induced by ethanol-hydrochloric acid (gastric cytoprotection); type: in vivo, SD-strain rats; conditions: Rattus norvegicus, po, rats; 30 minutes before 0.2N hydrochloric acid-50% aqueous ethanol; read-out: ED50 effective for 50% inhibition to the formation of necrotic lesions
Protocol: Thus, according to the method of Robert et al (see "Gastroenterology" 77, 433-443 (1979)), SD-strain rats (male, weighing 200 to 220 g, 8 rats in each group) were deprived of food for 24 hours and deprived of water for 19 hours. The rats were then administered orally with a suspension of the test compound in aqueous 0.5% carboxymethylcellulose solution at a dosage of 6, 10 or 20 mg/kg of the test compound. […] One hour after the administration of the ethanolic hydrochloric acid, the rats were killed. Their stomacks were dissected out, and the lower part of the esophagus was nipped with a clip. Aqueous 1% formalin solution (12.0 ml) was poured into the stomacks from duodenum and then the duodenal part was nipped by a clip. The whole stomacks were immersed in aqueous 1% formalin solution for about 10 minutes for the fixation, the pyloric stomacks were opened along the greater curvature and then rinsed with water. The gastric mucosa was examined and the necrotic lesions or errosions as formed in the glandular stomack and in the pylorus were examined under anatomic microscope to determine the length (in mm) of the lesions. From the test results obtained by the above procedure, the ED50 value of the tested compound effective for 50% inhibition to the formation of necrotic lesions was evaluated. Omeprazole as the comparative drug was tested in the same manner as above.

gastric acid secretion = assay: Gastric acid antisecretory activity (tetragastrin-stimulated secretion); type: in vivo, Donryu-strain rats; conditions: for ED50: Rattus norvegicus, iv, anaesthetized rats, tetragastrin 5 μg/kg, read-out: ED50 effective for 50% inhibition of the gastric acid secretion
Protocol: The bilateral vagus nerves in the cervical region of the rats were surgically cut and cannulas were inserted into the pylorus and also into the esophagus, respectively, and tied in place according to the method of Ghosh and Schild (see "Brit. J. Pharmacol." 13, 54 (1958)). Aqueous 0.9% saline solution (pH 8.5) as warmed to 40° C. was passed through the […] cannula into the stomack at a rate of 1 ml/min. for the perfusion. The pH value of the effluent coming from the pyloral cannula was measured. At the stage when the pH value of said effluent became steady, 5 μg/kg of tetragastrin, a stimulant for the gastric acid secretion, was administered through a cannula which had been inserted into the cervical vein. After the administration of tetragastrin,the decreasing change of pH value in the effluent was measured at constant intervals of time. Subsequently, a solution of the test compound in methanol was intraveously administered to the rat, and 15 minutes later tetragastrin was again administered. From the test data of the pH measurements so obtained was evaluated the ED50 value of the tested compound effective for 50% inhibition of the gastric acid secretion.

rabbit gastric glands = assay: Inhibitory effects on aminopyrine uptake into gastric glands; type: cell-based; conditions: Oryctolagus cuniculus, 0.5 h, 37° C., 30 minutes, untreated control = 100%; for activity at 100 µM: 10^-4 M test compound; for activity at 10 µM: 10^-5 M test compound; for activity at 1 µM: 10^-6 M test compound
From the text: The production of gastric acid in the gastric mucosa is known to be performed by the parietal cells which are one kind of the cells constituting the gastric glands. The extent of the gastric acid secretion by the parietal cells has been deduced to be proportional to the rate of aminopyrine uptake into the gastric glands. Accordingly, the investigation of aminopyrine uptake into the gastric glands has been generally used as the indirect method for measuring the gastric acid secretion. Therefore, suspension of the rabbit gastric glands was prepared according to the method of Berglindh et al (see "Acta Physiol. Scand." 97, 401-414 (1976)). […] After this incubation, the reaction mixture obtained was centrifuged so that the gastric glands were spun down and separated from the incubation mixture. The gastric glands so collected were liophylized and the dry weight of the glands was measured. […] The so determined value of the radio-activity was assumed as the concentration or level of the aminopyrine uptaken into the gastric glands. According to the report of Berglindh et al (see "Acta Physiol. […] The radio-activity of the supernatant of the incubation mixture was determined in the same manner as above by the liquid scintillation counter, and the so determined value of the radio-activity of the supernatant was assumed to be the concentration or level of the aminopyrine present in the extraglandular water with the assumption that the so determined concentration of the aminopyrine in the supernatant was a measure of showing the quantity of the aminopyrine remaining not uptaken into gastric glands. Rate of aminopyrine uptake into gastric glands was calculated according to the following equation: [formula] The above experiment was repeated without the test compound as the Control test (untreated with test compound), and the rate of aminopyrine uptake as determined for this control test (untreated) was assumed to be 100%. The value (% of Control) was taken as showing the inhibitory effects of the test compound on the acid secretion. As a comparative drug, omeprazole was tested in the same way as above.

[1] = pre-incubated 30 minutes at 37° C., pH 7.3, with or without 50 mM KCl, read-out: IC50 value required for 50% inhibition of the enzymatic activity

T1 sequence (P27112 whole entry): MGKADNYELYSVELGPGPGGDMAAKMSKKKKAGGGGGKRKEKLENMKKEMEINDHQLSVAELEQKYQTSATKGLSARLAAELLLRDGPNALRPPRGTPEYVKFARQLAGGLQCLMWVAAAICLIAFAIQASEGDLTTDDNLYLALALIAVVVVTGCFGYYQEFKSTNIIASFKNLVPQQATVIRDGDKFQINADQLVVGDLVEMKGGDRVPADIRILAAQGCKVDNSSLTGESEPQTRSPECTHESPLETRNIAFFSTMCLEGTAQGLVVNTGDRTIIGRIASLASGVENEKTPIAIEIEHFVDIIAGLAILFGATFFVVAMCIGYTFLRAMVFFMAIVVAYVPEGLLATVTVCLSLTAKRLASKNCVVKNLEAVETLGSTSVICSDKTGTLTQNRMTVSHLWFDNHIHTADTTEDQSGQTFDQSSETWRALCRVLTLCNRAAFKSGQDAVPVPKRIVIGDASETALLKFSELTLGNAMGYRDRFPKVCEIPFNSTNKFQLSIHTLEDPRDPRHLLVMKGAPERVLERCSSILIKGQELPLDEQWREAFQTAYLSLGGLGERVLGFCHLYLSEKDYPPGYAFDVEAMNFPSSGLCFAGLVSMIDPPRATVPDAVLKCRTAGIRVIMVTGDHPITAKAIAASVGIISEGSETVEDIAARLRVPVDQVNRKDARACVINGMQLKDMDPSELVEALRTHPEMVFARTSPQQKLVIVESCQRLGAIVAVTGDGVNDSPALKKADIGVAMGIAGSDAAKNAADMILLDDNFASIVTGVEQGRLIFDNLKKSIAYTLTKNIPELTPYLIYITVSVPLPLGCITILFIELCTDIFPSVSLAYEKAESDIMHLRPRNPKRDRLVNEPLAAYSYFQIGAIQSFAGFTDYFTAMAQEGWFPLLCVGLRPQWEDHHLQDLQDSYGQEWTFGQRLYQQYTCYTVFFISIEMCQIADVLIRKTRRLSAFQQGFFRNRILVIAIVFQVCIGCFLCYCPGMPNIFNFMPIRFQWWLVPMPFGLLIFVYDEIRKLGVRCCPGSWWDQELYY
T1 sequence (P18597 whole entry partner): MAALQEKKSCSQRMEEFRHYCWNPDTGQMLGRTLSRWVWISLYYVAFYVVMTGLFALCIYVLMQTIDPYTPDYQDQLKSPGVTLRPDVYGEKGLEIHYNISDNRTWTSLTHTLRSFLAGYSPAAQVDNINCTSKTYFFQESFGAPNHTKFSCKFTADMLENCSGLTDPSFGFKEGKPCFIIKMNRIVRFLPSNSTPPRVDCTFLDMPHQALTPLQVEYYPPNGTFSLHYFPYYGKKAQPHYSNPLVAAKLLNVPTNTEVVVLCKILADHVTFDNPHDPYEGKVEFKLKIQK

| SMILES | H^+,K^+ -ATPase inhibition (in words) (H^+,K^+ -ATPase) | IC50 (H^+,K^+ -ATPase; [1]) [µM] | ED50 (gastric mucosa) [mg/kg] | ED50 (gastric acid secretion) [mg/kg] | gastric acid antisecretory activity (in words) (gastric acid secretion; rat, in vivo) | activity at 100 µM (rabbit gastric glands) [%] | activity at 10 µM (rabbit gastric glands) [%] | activity at 1 µM (rabbit gastric glands) [%] | IC50 (H^+,K^+ -ATPase) [µM] |
| --- | --- | --- | --- | --- | --- | --- | --- | --- | --- |
| Cc1cnc(CSc2cc3ccccc3[nH]2)cc1N1CCCCC1 [Example 1, 2-[(5-methyl-4-piperidino-2-pyridyl)methylthio]indole] | H^+,K^+ -ATPase inhibitors | 50 | 11.5 | 7.58 | remarkedly milder than that of opeprazole | 7 | 14 | 44 | – |
| CN(C)c1ccnc(CSc2c[nH]c3ccccc23)c1 [Example 2, 3-[(4-dimethylamino-2-pyridyl)methylthio]indole] | – | – | – | – | – | 24 | 72 | 111 | – |
| Cc1cnc(C[S+]([O-])c2cc3ccccc3[nH]2)cc1N1CCCCC1 (centres unmarked) [Example 3, 2-[(5-methyl-4-piperidino-2-pyridyl)methylsulfinyl]indole] | – | – | – | – | – | 54 | 64 | 99 | – |
| Cc1cnc(CSc2cc3ccccc3n2C)cc1N1CCCCC1 [Example 4, 1-methyl-2-[(5-methyl-4-piperidino-2-pyridyl)methylthio]indole] | – | – | – | – | – | 7 | 8 | 50 | – |
| Cc1ccc2[nH]c(SCc3cc(N4CCCCC4)c(C)cn3)cc2c1 [Example 5, 5-methyl-2-[(5-methyl-4-piperidino-2-pyridyl)methylthio]indole] | – | – | 8.59 | – | – | 11 | 18 | 56 | – |
| Cc1cnc(CSc2cc3cc(F)ccc3[nH]2)cc1N1CCCCC1 [Example 6, 5-fluoro-2-[(5-methyl-4-piperidino-2-pyridyl)methylthio]indole] | – | – | 12.7 | – | – | 14 | 76 | 48 | – |
| Cc1cnc(CSc2cc3cc(C(F)(F)F)ccc3[nH]2)cc1N1CCCCC1 [Example 7, 5-trifluoromethyl-2-[(5-methyl-4-piperidino-2-pyridyl)methylthio]indole] | – | – | 9.77 | – | – | 14 | 17 | 55 | – |
| CCOC(=O)c1ccc2[nH]c(SCc3cc(N4CCCCC4)c(C)cn3)cc2c1 [Example 9, 5-ethoxycarbonyl-2-[(5-methyl-4-piperidino-2-pyridyl)methylthio]indole] | – | – | – | – | – | 15 | 20 | 61 | – |
| Cc1c(N2CCCCC2)ccnc1CSc1cc2ccccc2[nH]1 [Example 10, 2-[(3-methyl-4-piperidino-2-pyridyl)methylthio]indole] | – | – | – | – | – | 4 | 19 | 71 | – |
| Cc1cnc(CSc2cc3ccccc3[nH]2)cc1N1CCOCC1 [Example 11, 2-[(5-methyl-4-morpholino-2-pyridyl)methylthio]indole] | – | – | – | – | – | 3 | 56 | 106 | – |
| Cc1cnc(CSc2cc3ccccc3[nH]2)cc1N1CCCC1 [Example 12, 2-[(5-methyl-4-pyrrolidino-2-pyridyl)methylthio]indole] | – | – | – | – | – | 10 | 11 | 48 | – |
| CN(C)c1ccnc(CSc2cc3ccccc3[nH]2)c1 [Example 13, 2-[(4-Dimethylamino-2-pyridyl)methylthio]indole] | H^+,K^+ -ATPase inhibitors | 700 | 9.17 | – | – | 3 | 48 | 118 | – |
| COc1ccc2[nH]c(SCc3cc(N4CCCCC4)c(C)cn3)cc2c1 [Example 21, 5-methoxy-2-[(5-methyl-4-piperidino-2-pyridyl)methylthio]indole] | – | – | 14.6 | – | – | – | – | – | – |
| c1ccc2[nH]c(SCc3cc(N4CCCCC4)ccn3)cc2c1 [Example 22, 2-[(4-piperidino-2-pyridyl)methylthio]indole] | – | – | 8.13 | – | – | – | – | – | – |
| Clc1ccnc(CSc2c[nH]c3ccccc23)c1 [Example 37, 3-[(4-chloro-2-pyridyl)methylthio]indole] | – | – | – | – | – | 95 | 105 | 114 | – |
| CCOC(=O)c1ccnc(CSc2c[nH]c3ccccc23)c1 [Example 38, 3-[(4-ethoxycarbonyl-2-pyridyl)methylthio]indole] | – | – | – | – | – | 141 | 103 | 120 | – |
| Oc1ccnc(CSc2c[nH]c3ccccc23)c1 [Example 39, 3-[(4-hydroxy-2-pyridyl)methylthio]indole] | – | – | – | – | – | 105 | 109 | 120 | – |
| Cc1cnc(CSc2c[nH]c3ccccc23)cc1N1CCCCC1 [Example 40, 3-[(5-methyl-4-piperidino-2-pyridyl)methylthio]indole] | – | – | 2.84 | – | – | – | – | – | – |
| COc1ccc2nc([S+]([O-])Cc3ncc(C)c(OC)c3C)[nH]c2c1 (centres unmarked) [Omeprazole, 2-[(3,5-dimethyl-4-methoxy-2-pyridyl)methylsulfinyl]-5-methoxybenzimidazole, reference compound] | – | – | 34.1 | 0.24 | – | 18 | 25 | 34 | 9.4 |
